Marks after values point to notes of the source that are not given here.
Key:
[1] = Iron concentration in plasma of young pigs after FeSO4 or FeSO4/AKG infusion to the duodenum or pelvic intestine; format: in vivo
Procedure: (§1) Investigations were performed on 3 piglets of the Swedish race Landrace weighting 30-35 kg. Animals originated from the university herd (Swedish Agricultural University, Dept. of Agricultural Biosystems and Technology, Lund). Young pigs were fed 2 times a day at the same time (9:00-10:00 a.m. and 3:00-4:00 p.m.) with a standard fodder (Vaxfor, Lantmanen, Sweden) with a daily dose 50 g/kg body weight. They were watered ad libitum. Animals were held separately in boxes with automatically regulated 12 hour's periods of day and night.
(§2) Sterile catheters and T-fistulas used in the experience were made of silicone tubes with maintained medical standards (Dow Cornning). Piglets were starved for 9-12 hours before the operation. Before the operation animals received a sedative drug—azoperone (Stresnil, 2 mg/kg body weight). Then the inhalation induction of general anaesthesia was performed (Fluothan 0.5-1.5 vol %). […] With the catheters inserted to the portal vein and the common carotid-artery the blood samples for later analyses were collected.
Two incisions were done: one 10-15 cm close to the right hunger fossa, second 2-3 cm between the brachial joint and the angle of the mandible. Duodenal fistula was placed behind the opening of the pancreatic duct to the duodenum. Pelvic T-fistula (int. diameter 3.18 mm and ext. diameter 4.64 mm—both fistulas) was introduced to the pelvic intestine at the end of the caeco-iliac ligament.
The catheter to the portal vein (int. diameter 0.64 mm and ext. diameter 1.19 mm) was introduced through the liver and fixed with several sutures (0-2 Catgut, Ethicon, England). The catheter placed in portal vein and both intestinal fistulas were brought out the body in the line of incision. After dissection of zygomatic vein the catheter was introduced in the cardiac direction on the depth of 7 cm. The vein was closed with the double ligature (0-3 silicone-, Ethicon, England) and brought outside the body with the surgical needle in the dorsal part of the neck. The abdomen and the neck wounds were closed with two layers of sutures: the peritoneum (only in the abdomen wound) and muscles were closed with twisted suture (0-0 Catgut , Ethicon), the skin was closed with the interrupted sutures (Suturamid 2-0, Ethicon). After operation young pigs were placed in separate boxes. During 5 postoperative days animals were fed twice a day, they received water ad libitum. The operation was performed by the skilled surgeon in accordance with surgical techniques.
Before infusion animals were starved. The daily dose of food was given during evening feeding at 3:00 p.m. All infusions were started at 9:00 a.m. Blood samples were taken 30 minutes before and 15, 30, 60 and 120 minutes after the infusion. 2. Infusions composition.

[2] = AKG concentration in plasma of young pigs after AKG or FeSO4/AKG infusion to the duodenum or pelvic intestine; format: in vivo; conditions: FeSO4 infused with AKG
Procedure: as §1, §2
Two incisions were done: one 10-15 cm close to the right hunger fossa, second 2-3 cm between the brachial joint and the angle of the mandible. Duodenal fistula was placed behind the opening of the pancreatic duct to the duodenum. […]

iron concentration in plasma ([1]; infusion to pelvic intestine, portal vein, 15 min): 18.00 ± 5.41^a μmol/l
iron concentration in plasma ([1]; infusion to pelvic intestine, portal vein, 30 min): 17.67 ± 6.53^a μmol/l
iron concentration in plasma ([1]; infusion to pelvic intestine, portal vein, 60 min): 16.83 ± 6.81^a μmol/l
iron concentration in plasma ([1]; infusion to pelvic intestine, portal vein, 120 min): 15.33 ± 7.18^a μmol/l
iron concentration in plasma ([1]; infusion to pelvic intestine, portal vein, -30 min (before infusion)): 19.17 ± 8.69^a μmol/l
iron concentration in plasma ([1]; infusion to pelvic intestine, zygomatic vein, 15 min): 18.83 ± 6.81^a μmol/l
iron concentration in plasma ([1]; infusion to pelvic intestine, zygomatic vein, 30 min): 18.83 ± 6.81^a μmol/l
iron concentration in plasma ([1]; infusion to pelvic intestine, zygomatic vein, 60 min): 18.00 ± 7.47^a μmol/l
iron concentration in plasma ([1]; infusion to pelvic intestine, zygomatic vein, 120 min): 15.67 ± 6.43^a μmol/l
iron concentration in plasma ([1]; infusion to pelvic intestine, zygomatic vein, -30 min (before infusion)): 19.67 ± 7.97^a μmol/l
iron concentration in plasma ([1]; infusion to the duodenum, portal vein, 15 min): 28.5 ± 4.09^b μmol/l
iron concentration in plasma ([1]; infusion to the duodenum, portal vein, 30 min): 37.67 ± 5.3^cb μmol/l
iron concentration in plasma ([1]; infusion to the duodenum, portal vein, 60 min): 40.17 ± 4.62^c μmol/l
iron concentration in plasma ([1]; infusion to the duodenum, portal vein, 120 min): 37.17 ± 4.37^c μmol/l
iron concentration in plasma ([1]; infusion to the duodenum, portal vein, -30 min (before infusion)): 16.33 ± 1.04^a μmol/l
iron concentration in plasma ([1]; infusion to the duodenum, zygomatic vein, 15 min): 29.17 ± 5.51^b μmol/l
iron concentration in plasma ([1]; infusion to the duodenum, zygomatic vein, 30 min): 39.50 ± 4.09^c μmol/l
iron concentration in plasma ([1]; infusion to the duodenum, zygomatic vein, 60 min): 43.0 ± 4.82^c μmol/l
iron concentration in plasma ([1]; infusion to the duodenum, zygomatic vein, 120 min): 39.5 ± 3.5^c μmol/l
iron concentration in plasma ([1]; infusion to the duodenum, zygomatic vein, -30 min (before infusion)): 18.2 ± 1.53^a μmol/l
Compound: O=S(=O)([O-])[O-].[Fe+2] [FeSO4]
effect on absorption of AKG from the intestine into the blood [2]: increases the absorption of AKG from the intestine into the blood

From US20090238895A1, “NUTRITIONAL AND/OR PHARMACEUTICAL PREPARATION FOR USE IN PROPHYLAXIS AND TREATMENT OF DISTURBANCES IN MICROELEMENTS ABSORPTION FROM THE ALIMENTARY CANAL” (priority 2004, published 2009)
